Counter-ions that a name gives are not always drawn.
Tests used:
NHE-1 subtype = target: T1, NHE-1 subtype (Homo sapiens, UniProt P19634); experiment: NHE inhibition FLIPR test (intracellular pH recovery, BCECF) in transfected LAP-1 cells; format: cell-based; settings: transfected LAP-1 cell line expressing NHE-1 subtype, pHi recovery after acidification, read-out: IC50 (NHE1)
T1 construct: expressed in transfected cells; host or cells: LAP-1 (parental line without endogenous NHE activity), G418 selection
Description: The NHE inhibitory activities (IC50 values) of the compounds according to the invention were determined by a FLIPR test. The test is performed in the FLIPR (Fluorescent Imaging Plate Reader) equipped with clear-bottomed and black-walled 96-well microtitration plates. […] The growth medium for the transfected cells (Iscove+10% foetal calf serum) also comprises G418 as selection antibiotic to ensure the presence of transfected sequences. The actual test begins by eliminating the growth medium and adding 100 μl of loading buffer per well (5 μM of BCECF-AM [2′,7′-bis(2-carboxyethyl)-5-(6)-carboxyfluoresceine acetoxymethyl ester] in 20 mM of NH4Cl, 115 mM of choline chloride, 1 mM of CaCl2, 5 mM of KCl, 20 mM of HEPES and 5 mM of glucose; pH 7.4 (adjusted with KOH). The cells are then incubated for 20 minutes at 37° C. This incubation results in the loading of the fluorescent dye into the cells, the fluorescence intensity of which depends on the pHi, and on the NH4Cl, which results in a slight basification of the cells. The precursor BCECF-AM, a non-fluorescent dye, is, as an ester, capable of crossing the membrane. The actual dye, which is incapable of crossing the membrane, is released inside the cell by esterases. After this 20-minute incubation, the loading buffer, which comprises NH4Cl and free BCECF-AM, is removed by washing three times in the cell washing device (Tecan Columbus), each wash being performed with 400 μl of washing buffer (133.8 mM of choline chloride, 4.7 mM of KCl, 1.25 mM of MgCl2, 1.25 mM of CaCl2, 0.97 mM of K2HPO4, 0.23 mM of KH2PO4, 5 mM of HEPES and 5 mM of glucose; pH 7.4 (adjusted with KOH)). The residual volume remaining in the wells is 90 μl (possibly between 50 and 125 μl). This washing step removes the free BCECF-AM and results in an intracellular acidification (pHi of 6.3-6.4) due to the removal of the external ammonium ions. As the equilibrium of the intracellular ammonium with the aqueous ammonia and the protons, by removal of the extracellular ammonium and by the subsequent immediate crossing of the aqueous ammonia across the cell membrane, is disrupted, the washing process results in intracellular protons remaining, which is the cause of the intracellular acidification. This acidification can result finally in the death of the cells if it lasts long enough. It is important here for the washing buffer to be free of sodium (<1 mM), otherwise the extracellular sodium ions would result in an immediate increase in the pHi on account of the activity of the cloned NHE isoforms. It is also important for all the buffers used (loading buffer, washing buffer and regeneration buffer) not to contain any HCO3-ions, otherwise the presence of bicarbonate would result in the activation of bicarbonate-dependent systems that disrupt the pHi regulation, which systems are contained in the LAP-1 parental cell line. The microtiter plates containing acidified cells are then transferred (up to 20 minutes after the acidification) to the FLIPR. In the FLIPR, the intracellular fluorescent dye is activated with light of a wavelength of 488 nm, which is generated by an argon laser, and the measuring parameters (laser power, illumination time and diaphragm of the […] camera integrated into the FLIPR) are chosen such that the average value of the fluorescent signal per well is between 30,000 and 35,000 relative fluorescence units. The actual measurement in the FLIPR starts with a photograph being taken by the CCD camera every two seconds under software control. After 10 seconds, the increase in the intracellular pH is initiated by adding 90 μl of regeneration buffer (133.8 mM of NaCl, 4.7 mM of KCl, 1.25 mM of MgCl2, 1.25 mM of CaCl2, 0.97 mM of K2HPO4, 0.23 mM of KH2PO4, 10 mM of HEPES and 5 mM of glucose; pH 7.4 (adjusted with NaOH)) using a 96-well pipette device incorporated into the FLIPR. Some wells, to which is added pure regeneration buffer, serve as positive controls (100% NHE activity). […]

T1 sequence (P19634 whole entry): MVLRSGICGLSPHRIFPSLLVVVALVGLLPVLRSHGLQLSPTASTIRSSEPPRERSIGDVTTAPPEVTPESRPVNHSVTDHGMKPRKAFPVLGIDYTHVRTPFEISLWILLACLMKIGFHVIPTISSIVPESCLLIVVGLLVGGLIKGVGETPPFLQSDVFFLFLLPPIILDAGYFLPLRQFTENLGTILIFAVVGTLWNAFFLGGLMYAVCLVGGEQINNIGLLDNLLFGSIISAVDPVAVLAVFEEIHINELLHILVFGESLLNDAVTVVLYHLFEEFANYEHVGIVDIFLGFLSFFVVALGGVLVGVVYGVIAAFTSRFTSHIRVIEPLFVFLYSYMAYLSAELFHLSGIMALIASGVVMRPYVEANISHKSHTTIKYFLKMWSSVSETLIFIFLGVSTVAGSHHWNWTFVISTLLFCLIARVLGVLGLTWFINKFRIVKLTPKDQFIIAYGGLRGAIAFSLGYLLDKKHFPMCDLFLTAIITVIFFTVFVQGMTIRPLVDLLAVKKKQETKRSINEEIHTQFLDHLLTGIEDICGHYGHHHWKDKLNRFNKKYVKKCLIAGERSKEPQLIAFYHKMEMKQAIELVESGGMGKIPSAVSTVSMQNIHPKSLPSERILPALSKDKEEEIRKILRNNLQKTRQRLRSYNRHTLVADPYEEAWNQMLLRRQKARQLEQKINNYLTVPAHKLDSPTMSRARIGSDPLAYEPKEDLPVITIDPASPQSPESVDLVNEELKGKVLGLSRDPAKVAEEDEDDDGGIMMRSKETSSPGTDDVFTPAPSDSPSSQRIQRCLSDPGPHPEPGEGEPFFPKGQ

IC50 (NHE-1 subtype) [µM] | melting point [°C] | SMILES
2.36 | 216 | Cl.N=C(N)NC(=O)c1cn(-c2cc(C(F)(F)F)nc3ccccc23)c2ccccc12 [Example 1, 3-Guanidinocarbonyl-1-(2-(trifluoromethyl)quinol-4-yl)-1H-indole hydrochloride]
0.22 | 260 | Cl.N=C(N)NC(=O)c1cn(-c2ccnc3ccc(C(F)(F)F)cc23)c2ccccc12 [Example 2, 3-Guanidinocarbonyl-1-(6-(trifluoromethyl)quinol-4-yl)-1H-indole hydrochloride]
0.25 | 238 | Cl.N=C(N)NC(=O)c1cn(-c2ccnc3cc(C(F)(F)F)ccc23)c2ccccc12 [Example 3, 3-Guanidinocarbonyl-1-(7-(trifluoromethyl)quinol-4-yl)-1H-indole hydrochloride]
1.47 | 212 | Cl.N=C(N)NC(=O)c1cn(-c2ccnc3c(C(F)(F)F)cccc23)c2ccccc12 [Example 4, 3-Guanidinocarbonyl-1-(8-(trifluoromethyl)quinol-4-yl)-1H-indole hydrochloride]
0.12 | 266 | COc1ccc2nccc(-n3cc(C(=O)NC(=N)N)c4ccccc43)c2c1.Cl [Example 5, 3-Guanidinocarbonyl-1-(6-methoxyquinol-4-yl)-1H-indole hydrochloride]
0.24 | 266 | COc1ccc2c(-n3cc(C(=O)NC(=N)N)c4ccccc43)ccnc2c1.Cl [Example 6, 3-Guanidinocarbonyl-1-(7-methoxyquinol-4-yl)-1H-indole hydrochloride]
0.25 |  | NC(N)=NC(=O)c1cn(-c2ccnc3cc(Cl)ccc23)c2ccccc12 [Example 9, N-[1-(7-Chloro-quinolin-4-yl)-1H-indole-3-carbonyl]-guanidine trifluoroacetate]

Further lines, the compound ahead of its results:

SMILES | IC50 (NHE-1 subtype) [µM] | melting point [°C]
Cl.Cn1ccc2c(-n3cc(C(=O)NC(=N)N)c4ccccc43)ncnc21 [Example 7, 3-Guanidinocarbonyl-1-(7-methyl-7H-pyrrolo[2,3-d]pyrimidin-4-yl)-1H-indole hydrochloride] | 0.0012 | 244
Cc1cc(-n2cc(C(=O)N=C(N)N)c3ccccc32)c2ccccc2n1 [Example 8, N-[1-(2-Methyl-quinolin-4-yl)-1H-indole-3-carbonyl]-guanidine trifluoroacetate] | 0.0072 | 
COc1ccc2c(c1)c(C(=O)N=C(N)N)c(C)n2-c1ccnc2cc(Cl)ccc12 [Example 10, N-[1-(7-Chloro-quinolin-4-yl)-5-methoxy-2-methyl-1H-indole-3-carbonyl]-guanidine trifluoroacetate] | 3.23 | 
NC(N)=NC(=O)c1cn(-c2ccnc3ccc(F)cc23)c2ccccc12 [Example 11, N-[1-(6-Fluoro-quinolin-4-yl)-1H-indole-3-carbonyl]-guanidine trifluoroacetate] | 0.01 | 
COc1ccc2c(c1)c(C(=O)N=C(N)N)c(C)n2-c1ccnc2ccc(F)cc12 [Example 12, N-[1-(6-Fluoro-quinolin-4-yl)-5-methoxy-2-methyl-1H-indole-3-carbonyl]-guanidine trifluoroacetate] | 2.64 | 
NC(N)=NC(=O)c1cn(-c2ccnc3c(F)cccc23)c2ccccc12 [Example 13, N-[1-(8-Fluoro-quinolin-4-yl)-1H-indole-3-carbonyl]-guanidine trifluoroacetate] | 0.0025 | 
COc1ccc2c(c1)c(C(=O)N=C(N)N)c(C)n2-c1ncnc2ccc(Cl)cc12 [Example 14, N-[1-(6-Chloro-quinazolin-4-yl)-5-methoxy-2-methyl-1H-indole-3-carbonyl]-guanidine trifluoroacetate] | 2.56 | 
